Assay results from patent US20100041661A1, “CASPASE INHIBITORS BASED ON PYRIDAZINONE SCAFFOLD” (LG Life Sciences Ltd., priority 2006, published 2010).

Legend:
[1] = target: T1, caspase-8 (Homo sapiens, UniProt Q14790); assay: Assay for the caspase inhibitory effect (fluorescent substrate AcDEVD-AFC); type: biochemical; conditions: pH 7.5; 2.1 nM caspase-8, 50 μM AcDEVD-AFC, 25° C., pH 7.50; read-out: Caspase-8 Kobs/[I] (converted)
T1 construct: p10 and p20 subunits (Thornberry, N. A. et al, Nature, 1992, 356, 768) were expressed in E. coli; made in house; host or cells: E. coli
T1 sequence (Q14790 217-374 limits assumed, species assumed): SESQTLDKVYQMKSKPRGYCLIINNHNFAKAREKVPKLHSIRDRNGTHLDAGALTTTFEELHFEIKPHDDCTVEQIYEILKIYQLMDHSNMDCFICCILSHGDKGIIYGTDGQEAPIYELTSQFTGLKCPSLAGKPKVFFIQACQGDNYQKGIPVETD
T1 sequence (Q14790 385-479 limits assumed, species assumed): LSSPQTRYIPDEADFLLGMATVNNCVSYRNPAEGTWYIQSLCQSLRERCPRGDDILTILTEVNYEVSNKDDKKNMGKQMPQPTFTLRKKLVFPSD
Description: Caspase-1 and caspase-8 known as cysteine proteases in the form of α2β2 were expressed, purified, and activated by modifying a method known in Thornberry, N. A. et al, Nature, 1992, 356, 768; Thornberry, N. A. Methods in Enzymology, 1994, 244, 615; Walker, N. P. C. et al. Cell, 1994, 78, 343, and caspase-9 was also purified by a similar method, and the inhibitory activity against them was tested. Briefly describing, p10 and p20 subunits (Thornberry, N. A. et al, Nature, 1992, 356, 768) were expressed in E. coli and purified by nickel column and anionic exchange chromatography to give caspase-1, caspase-8 and caspase-9. The fluorescent substrates AcYVAD-AFC for thus obtained caspase-1, AcDEVD-AFC for caspase-8, and AcLEHD-AFC for caspase-9, were used for determining specific activity of the synthesized inhibitors. The enzyme reaction was carried out at 25° C. with various concentrations of the inhibitors in a buffer solution containing 50 mM HEPES (pH 7.50), 10% (w/v) sucrose, 0.1% (w/v) CHAPS, 100 mM NaCl, 1 mM EDTA, and 10 mM DTT in the presence of 50 μM AcYVAD-AFC for 10 nM caspase-1, 50 μM AcDEVD-AFC for 2.1 nM caspase-8, and 150 μM AcLEHD-AFC for 200 nM caspase-9. The inhibitory constants Ki and Kobs of the inhibitors were determined by measuring the reaction velocity with the time lapse using a fluorescent spectrometer and by obtaining the initial rate constant. Ki was calculated from the Lineweaver Burk Plot, and Kobs from the following Equation 1.
Kobs=−ln(1−At/Aoo)/t [Equation 1]
At means cleavage rate (%) at time t, and
Aoo means the maximum cleavage rate (%).
Spectra MAX GeminiXS Fluorescent Spectrometer of Molecular Device Co. was used at the excitation wavelength of 405 nm and the emission wavelength of 505 nm.

[2] = test system: Jurkat cell (ATCC TIB-152); assay: Fas antibody-induced apoptosis of Jurkat cells, WST-1 method; type: cell-based; conditions: Homo sapiens, apoptosis induced by Fas antibody, alive cells by WST-1
Description: The […] inhibitory activity of the inhibitors was determined by subjecting Jurkat cell (ATCC TIB-152) to apoptosis using Fas antibody (Upstate Biotech 05-201) and by detecting the color change according to the WST-1 method known in Francoeur A. M. and Assalian A. (1996) Biochemica 3, 19-25 to observe the amount of alive Jurkat cells when the cells were treated by the inhibitor. Spectra MAX 340 Spectrometer of Molecular Device Co. was used at the absorbance wavelength of 440 nm.

| Structure (SMILES) | kinact/KI [1] [M⁻¹ s⁻¹] | IC50 [2] [nM] |
| --- | --- | --- |
| CCC(C(=O)NC(CC(=O)O)C(=O)CF)n1nc(C)cc(Cc2ccccc2C(C)(C)C)c1=O (stereo not drawn) [Example 1, 3-{2-[5-(2-tert-Butyl-benzyl)-3-methyl-6-oxo-6H-pyridazin-1-yl]-butyrylamino}-5-fluoro-4-oxo-pentanoic acid] | 91700 | 140 |
| Cc1cc(Cc2ccccc2C(C)(C)C)c(=O)n(CC(=O)N[C@@H](CC(=O)O)C(=O)COc2c(F)c(F)cc(F)c2F)n1 [Example 4, (S)-3-{2-[5-(2-tert-Butyl-benzyl)-3-methyl-6-oxo-6H-pyridazin-1-yl]-acetylamino}-4-oxo-5-(2,3,5,6-tetrafluoro-phenoxy)-pentanoic acid] | 3330 |  |

More lines, now with the values ahead:

| kinact/KI [1] [M⁻¹ s⁻¹] | IC50 [2] [nM] | Structure (SMILES) |
| --- | --- | --- |
| 33300 | 330 | CCC(C(=O)N[C@@H](CC(=O)O)C(=O)COc1c(F)c(F)cc(F)c1F)n1nc(C)cc(Cc2ccccc2C(C)(C)C)c1=O (stereo partly drawn) [Example 2, (S)-3-{2-[5-(2-tert-Butyl-benzyl)-3-methyl-6-oxo-6H-pyridazin-1-yl]-butyrylamino}-4-oxo-5-(2,3,5,6-tetrafluoro-phenoxy)-pentanoic acid] |
| 6670 |  | Cc1cc(Cc2ccccc2C(C)(C)C)c(=O)n(C(C)C(=O)N[C@@H](CC(=O)O)C(=O)COc2c(F)c(F)cc(F)c2F)n1 (stereo partly drawn) [Example 3, (S)-3-{2-[5-(2-tert-Butyl-benzyl)-3-methyl-6-oxo-6H-pyridazin-1-yl]-propionylamino}-4-oxo-5-(2,3,5,6-tetrafluoro-phenoxy)-pentanoic acid] |
| 2830 |  | CCC(C(=O)N[C@@H](CC(=O)O)C(=O)COc1c(F)c(F)cc(F)c1F)n1nc(Cc2ccccc2C(C)(C)C)ccc1=O (stereo partly drawn) [Example 6, (S)-3-{2-[3-(2-tert-Butyl-benzyl)-6-oxo-6H-pyridazin-1-yl]-butyrylamino}-4-oxo-5-(2,3,5,6-tetrafluoro-phenoxy)-pentanoic acid] |
| 33300 | 170 | CCC(C(=O)N[C@@H](CC(=O)O)C(=O)COc1c(F)c(F)cc(F)c1F)n1nccc(Cc2ccccc2C(C)(C)C)c1=O (stereo partly drawn) [Example 5, (S)-3-{2-[5-(2-tert-Butyl-benzyl)-6-oxo-6H-pyridazin-1-yl]-butyrylamino}-4-oxo-5-(2,3,5,6-tetrafluoro-phenoxy)-pentanoic acid] |
